Key:
mouse Factor 11 mRNA = assay: Sense-oligonucleotide antidote: Factor 11 mRNA in liver (Example 23); format: in vivo, BALB/c mice; settings: for Percent inhibition of mouse Factor 11 mRNA compared to PBS control: antisense 40 mg/kg s.c. twice a week for three weeks, ISIS 418026 90 mg/kg single injection where given
Experimental: The effect of the specific sense oligonucleotide to ISIS 404071 as an antidote was tested in BALB/c mice. In a first cohort, ISIS 404071 was administered subcutaneously to BALB/c mice twice a week for three weeks at a dose of 40 mg/kg. In a second cohort, ISIS 404057 was administered subcutaneously to BALB/c mice twice a week for three weeks at a dose of 40 mg/kg. The ISIS 404071 specific antidote, ISIS 418026 ([…]; complementary to ISIS 404071), incorporated herein as SEQ ID NO: 13, was administered to both cohorts subcutaneously in a single injection of 90 mg/kg 48 hours after the final treatment of ISIS 404071 or 404057. In a third cohort, ISIS 404071 was administered subcutaneously to BALB/c mice twice a week for three weeks at a dose of 40 mg/kg. Following the last treatment of ISIS 404071, mice were injected subcutaneously injected with PBS. In a fourth cohort, ISIS 404057 was administered subcutaneously to BALB/c mice twice a week for three weeks at a dose of 40 mg/kg. Following the last treatment of ISIS 404057, mice were injected subcutaneously injected with PBS. Following antidote administration, a set of 4 mice from each cohort were sacrificed at 12 hours, 1 day, 2 days, 3 days, 7 days, and 14 days. Whole liver was collected for RNA analysis and PPP was collected for aPTT analysis.
RNA was extracted from liver tissue for real-time PCR analysis of Factor 11. Results are presented as percent inhibition of Factor 11, relative to PBS control.

murine Factor 11 protein = assay: Factor 11 protein, F11 assay based on clotting time (Example 10); format: in vivo; settings: BALB/c mice; for % Inhibition of murine Factor 11 protein: plasma, relative to PBS control
Experimental: BALB/c mice were injected with 5 mg/kg, 10 mg/kg, 25 mg/kg, or 50 mg/kg of ISIS 404057 or ISIS 404071 twice a week for 3 weeks. A control group of mice was injected with phosphate buffered saline (PBS) twice a week for 3 weeks. Mice were sacrificed 5 days after receiving the last dose. Whole liver was harvested for RNA analysis and plasma was collected for clotting analysis (PT and aPTT) and protein analysis.
Factor 11 proenzyme from the plasma of mice treated with ISIS 404071, was measured using a F11 assay based on clotting time. Clotting times were determined in duplicate with a ST4 semi-automated coagulation instrument (Diagnostica Stago, NJ). Thirty μl of citrated sample plasma diluted 1/20 in HEPES-NaCl buffer with BSA was incubated with 30 μl aPTT reagent (Platelet Factor 3 reagent plus particulate activator) and 30 μl of citrated plasma deficient of Factor 11 (human congential, George King Bio-Medical Inc.) at 37° C. to initiate clotting. Results were interpolated on a standard curve of serially diluted citrated control murine plasma.
Results are presented as percent inhibition of Factor 11, relative to PBS control.

blood coagulation = assay: PT and aPTT vs warfarin (Example 13); format: in vivo, BALB/c mice; settings: for PT INR / aPTT INR: PPP two days after final dose
Experimental: In a control group, BALB/c mice were treated with PBS, administered subcutaneously mice twice a week for 3 weeks.
Two days after the final dose was administered, PPP was collected and PT and aPTT assays were performed.
PT and aPTT values provided in Table 16 are reported as International Normalized Ratio (INR) values. […] This ratio was then raised to the power of the International Sensitivity Index (ISI) of the tissue factor used.

[1] = Tail bleeding assay vs warfarin (Example 12); settings: mouse, in vivo; for Blood (tail bleeding, collected over 40 minutes): sc
Experimental: A separate control group of BALB/c mice was treated with PBS, administered subcutaneously twice a week for 3 weeks.
Mice were anesthetized in the chamber with isoflurane and a small piece of tail (approximately 4 mm from the tip) was cut with sterile scissors. The tail cut was immediately placed in a 15 mL Falcon tube filled with approximately 10 mL of 0.9% NaCl buffer solution warmed to 37° C. The blood was collected over the course of 40 minutes. The saline filled tubes were weighed both before and after bleeding.

Factor 11 mRNA = Factor 11 mRNA in liver, FeCl3 induced venous thrombosis model vs warfarin (Example 11); format: in vivo, BALB/c mice; settings: for % inhibition of Factor 11 mRNA in liver relative to PBS control: FeCl3 VT model
Experimental: Two control groups of BALB/c mice were treated with PBS, administered subcutaneously twice a week for 3 weeks. Two days after the last dose of PBS, mice in both groups were anesthetized with 150 mg/kg ketamine mixed with 10 mg/kg xylazine administered by intraperitoneal injection. Thrombus formation was induced with FeCl3 in all groups of mice except the first control group.
In mice undergoing FeCl3 treatment, thrombus formation was induced by applying a piece of filter paper (2×4 mm) pre-saturated with 10% FeCl3 solution directly on the vena cava. After 3 minutes of exposure, the filter paper was removed. Thirty minutes after the filter paper application, a fixed length of the vein containing the thrombus was dissected out for platelet analysis. Liver was collected for RNA analysis.
RNA was extracted from liver tissue for real-time PCR analysis of Factor 11.

[2] = BALB/c mice, ISIS 404071 1.25-40 mg/kg, warfarin 0.5-5 mg/kg
[3] = ISIS 404071 1.25 mg/kg subcutaneously twice a week for 3 weeks
[4] = ISIS 404071 5 mg/kg subcutaneously twice a week for 3 weeks
[5] = ISIS 404071 10 mg/kg subcutaneously twice a week for 3 weeks
[6] = ISIS 404071 20 mg/kg subcutaneously twice a week for 3 weeks
[7] = ISIS 404071 40 mg/kg subcutaneously twice a week for 3 weeks

ISIS 404071: antisense oligonucleotide targeted to murine Factor 11 mRNA, TGGTAATCCACTTTCAGAGG, target start site 869 (chemistry not given here)
Percent inhibition of mouse Factor 11 mRNA compared to PBS control (mouse Factor 11 mRNA; 12 hours after antidote/PBS): 93%
Percent inhibition of mouse Factor 11 mRNA compared to PBS control (mouse Factor 11 mRNA; 1 day after antidote/PBS): 90%
Percent inhibition of mouse Factor 11 mRNA compared to PBS control (mouse Factor 11 mRNA; 2 days after antidote/PBS): 89%
Percent inhibition of mouse Factor 11 mRNA compared to PBS control (mouse Factor 11 mRNA; 3 days after antidote/PBS): 88%
Percent inhibition of mouse Factor 11 mRNA compared to PBS control (mouse Factor 11 mRNA; 7 days after antidote/PBS): 81%
Percent inhibition of mouse Factor 11 mRNA compared to PBS control (mouse Factor 11 mRNA; 14 days after antidote/PBS): 67%
inhibition of Factor 11 mRNA over the 14 day observation period (mouse Factor 11 mRNA; BALB/c mice, ISIS 404071 40 mg/kg, with or without ISIS 418026 90 mg/kg): progressive decrease in inhibition
Factor 11 protein (murine Factor 11 protein; 5-50 mg/kg): significant dose-dependent reduction of Factor 11 protein
% Inhibition of murine Factor 11 protein (murine Factor 11 protein; 5 mg/kg): 39%
% Inhibition of murine Factor 11 protein (murine Factor 11 protein; 10 mg/kg): 67%
% Inhibition of murine Factor 11 protein (murine Factor 11 protein; 25 mg/kg): 89%
% Inhibition of murine Factor 11 protein (murine Factor 11 protein; 50 mg/kg): 96%
PT (blood coagulation; [2]): did not significantly affect PT
aPTT (blood coagulation; [2]): did prolong aPTT
PT INR (blood coagulation; [3]): 0.99 INR
aPTT INR (blood coagulation; [3]): 0.98 INR
PT INR (blood coagulation; [4]): 1.07 INR
aPTT INR (blood coagulation; [4]): 1.09 INR
PT INR (blood coagulation; [5]): 1.08 INR
aPTT INR (blood coagulation; [5]): 1.29 INR
PT INR (blood coagulation; [6]): 1.09 INR
aPTT INR (blood coagulation; [6]): 1.32 INR
PT INR (blood coagulation; [7]): 0.98 INR
aPTT INR (blood coagulation; [7]): 1.64 INR
bleeding in tail bleeding assay [1]: did not affect bleeding
Blood (tail bleeding, collected over 40 minutes) ([1]; 1.25 mg/kg): 0.00 g
Blood (tail bleeding, collected over 40 minutes) ([1]; 5 mg/kg): 0.03 g
Blood (tail bleeding, collected over 40 minutes) ([1]; 10 mg/kg): 0.00 g
Blood (tail bleeding, collected over 40 minutes) ([1]; 20 mg/kg): 0.06 g
Blood (tail bleeding, collected over 40 minutes) ([1]; 40 mg/kg): 0.03 g
Factor 11 mRNA in liver vs PBS control (Factor 11 mRNA; FeCl3 induced VT model, ISIS 404071 1.25-40 mg/kg s.c. twice a week 3 weeks, warfarin 0.5-5 mg/kg daily 6 days): significant dose-dependent reduction of Factor 11 mRNA
% inhibition of Factor 11 mRNA in liver relative to PBS control (Factor 11 mRNA; [3]): 0%
% inhibition of Factor 11 mRNA in liver relative to PBS control (Factor 11 mRNA; [4]): 62%
% inhibition of Factor 11 mRNA in liver relative to PBS control (Factor 11 mRNA; [5]): 78%
% inhibition of Factor 11 mRNA in liver relative to PBS control (Factor 11 mRNA; [6]): 92%
% inhibition of Factor 11 mRNA in liver relative to PBS control (Factor 11 mRNA; [7]): 96%

From patent US20230263822A1, “MODULATION OF FACTOR 11 EXPRESSION” (Ionis Pharmaceuticals, Inc., priority 2008, published 2023)
